Experimental data: ChEMBL document CHEMBL2029340 (J Med Chem, 2012)
Calls of active or inactive are those of the source. The rule behind the calls is not given here.

How the values were obtained:
[1] = system: Influenza A virus; assay: Antiviral activity against amantidine-resistant Influenza A virus A/WSN/33(H1N1) infected in MDCK cells assessed as inhibition of virus-induced cytopathic effects after 3 days by CCK-8 assay; format: functional, organism-based; conditions: A/WSN/1933(H1N1), 72 h
[2] = system: Influenza A virus; assay: Antiviral activity against amantidine-resistant Influenza A virus A/WSN/33(H1N1) infected in MDCK cells assessed as reduction in plaque formation after 3 days by microscopy; format: functional, organism-based; conditions: A/WSN/1933(H1N1)
[3] = system: Influenza A virus; assay: Antiviral activity against amantidine-resistant Influenza A virus A/WSN/33(H1N1) infected in MDCK cells assessed as reduction in plaque formation at 0.3 uM after 3 days by microscopy; format: functional, organism-based; conditions: A/WSN/1933(H1N1)
[4] = system: Influenza A virus; assay: Antiviral activity against amantidine-resistant Influenza A virus A/WSN/33(H1N1) infected in MDCK cells assessed as reduction in plaque formation after 3 days by microplate counting of infectious particles assay; format: functional, organism-based; conditions: A/WSN/1933(H1N1), 72 h
[5] = system: Influenza A virus; assay: Antiviral activity against tamiflu-resistant Influenza A virus A/WSN/33 (H1N1) harboring neuraminidase 274Y mutant infected in MDCK cells assessed as reduction of nucleoprotein antigen level after 3 days; format: functional, organism-based, A/WSN/1933(H1N1)
[6] = system: Influenza A virus; assay: Antiviral activity against Influenza A virus A/WSN/1933 (H1N1) harboring wild type nucleoprotein 52Y infected in MDCK cells assessed as reduction of nucleoprotein antigen level after 3 days; format: functional, organism-based; conditions: 72 h
[7] = system: Influenza A virus; assay: Antiviral activity against Influenza A virus A/WSN/1933 (H1N1) harboring nucleoprotein 52H mutant infected in MDCK cells assessed as reduction of nucleoprotein antigen level after 3 days; format: functional, organism-based
[8] = system: Influenza A virus; assay: Antiviral activity against amantidine-resistant Influenza A virus A/WSN/33(H1N1) infected in MDCK cells assessed as reduction in plaque formation at 1 uM after 3 days by microscopy; format: functional, organism-based; conditions: A/WSN/1933(H1N1)

Structure (SMILES) | IC50 [1] [µM] | further results
CCc1nnn(-c2ccccc2OC)c1C(=O)N1CCN(c2ccc([N+](=O)[O-])cc2Cl)CC1 | > 50 | 
Cc1noc(-c2ccccc2)c1C(=O)N1CCN(c2ccc([N+](=O)[O-])cc2Cl)CC1 | 4.83 | 
COc1cc([N+](=O)[O-])ccc1N1CCN(C(=O)c2c(C)nnn2-c2ccccc2OC)CC1 | > 50 | 
Cc1[nH]nc(-c2ccccc2)c1C(=O)N1CCN(c2ccc([N+](=O)[O-])cc2Cl)CC1 | 3.38 | 
COc1ccc(-n2nnc(C)c2C(=O)N2CCN(c3ccc([N+](=O)[O-])cc3Cl)CC2)cc1 | 5.61 | 
COc1ccccc1-n1nnc(C)c1C(=O)N1CCN(c2ccccc2Cl)CC1 | 48.1 | 
O=C(c1ccccc1-c1ccccc1)N1CCN(c2ccc([N+](=O)[O-])cc2Cl)CC1 | 5.24 | 
COc1ccccc1-n1nnc(C)c1C(=O)N1CCCN(c2ccc([N+](=O)[O-])cc2Cl)CC1 | 35.5 | 
Cc1nnn(-c2ccccc2OC(C)C)c1C(=O)N1CCN(c2ccc([N+](=O)[O-])cc2Cl)CC1 | 8.42 | 
Cc1onc(-c2ccccc2)c1C(=O)N1CCN(c2ccc([N+](=O)[O-])cc2Cl)CC1 [NUCLEOZIN] | 0.32 | Activity [2]: Dose-dependent effect; Activity [3]: Active; IC50 [4]: 0.1 µM; IC50 [5]: 0.66 µM; IC50 [6]: 0.49 µM; IC50 [7]: > 50 µM
Cc1nnn(-c2cccc(Cl)c2)c1C(=O)N1CCN(c2ccc([N+](=O)[O-])cc2Cl)CC1 | 4.89 | 
Cc1nnn(-c2ccccc2)c1C(=O)N1CCN(c2ccc([N+](=O)[O-])cc2Cl)CC1 | 3.13 | 
COc1ccccc1-n1nnc(C)c1C(=O)N1CCN(c2ccc([N+](=O)[O-])cc2)CC1 | 17 | 
Cc1nnn(-c2ccc(Cl)cc2)c1C(=O)N1CCN(c2ccc([N+](=O)[O-])cc2Cl)CC1 | 4.93 | 
Cc1nnn(-c2ccccc2O)c1C(=O)N1CCN(c2ccc([N+](=O)[O-])cc2Cl)CC1 | 1.58 | 
COc1ccccc1-n1nnc(C)c1C(=O)N1CCN(c2ccccc2)CC1 | > 50 | 
COc1ccccc1-c1ccccc1C(=O)N1CCN(c2ccc([N+](=O)[O-])cc2Cl)CC1 | 1.57 | 
COc1ccccc1-c1onc(C)c1C(=O)N1CCN(c2ccc([N+](=O)[O-])cc2Cl)CC1 | 0.71 | 
COc1ccccc1-n1nnc(C)c1C(=O)N1CCN(c2ccc([N+](=O)[O-])cc2Cl)CC1 | 0.68 | Activity [8]: Active; Activity [3]: Active; IC50 [4]: 0.23 µM; IC50 [5]: 1.11 µM; IC50 [6]: 1.4 µM; IC50 [7]: > 50 µM
COc1cccc(OC)c1-n1nnc(C)c1C(=O)N1CCN(c2ccc([N+](=O)[O-])cc2Cl)CC1 | 1.34 | 
Cc1nnn(-c2ccccc2Cl)c1C(=O)N1CCN(c2ccc([N+](=O)[O-])cc2Cl)CC1 | 1.2 | 
Cc1ccccc1-n1nnc(C)c1C(=O)N1CCN(c2ccc([N+](=O)[O-])cc2Cl)CC1 | 2.4 | 
CC(=O)c1ccccc1-n1nnc(C)c1C(=O)N1CCN(c2ccc([N+](=O)[O-])cc2Cl)CC1 | 13.7 | 
Cc1[nH]nc(-c2ccccc2Cl)c1C(=O)N1CCN(c2ccc([N+](=O)[O-])cc2Cl)CC1 | 0.72 | 
NC12CC3CC(CC(C3)C1)C2 [AMANTADINE] | > 50 | 
COc1ccccc1-n1nncc1C(=O)N1CCN(c2ccc([N+](=O)[O-])cc2Cl)CC1 | 8.36 | 
CCOc1ccccc1-n1nnc(C)c1C(=O)N1CCN(c2ccc([N+](=O)[O-])cc2Cl)CC1 | 3.22 | 
COc1cccc(-n2nnc(C)c2C(=O)N2CCN(c3ccc([N+](=O)[O-])cc3Cl)CC2)c1 | 5.35 | 
